Read-outs that look alike come from different tables or passages of the source.
Assay: in vitro
Assay type: in vitro ADME, human
Protocol: For several compounds only human liver microsomal stability was tested. […] The microsomal assays were carried out with and without the addition of NADPH at a final concentration of 1 mM. For negative control samples, NADPH reagent was not added. […] Note that compounds undergo only Phase I metabolism in liver microsomes.

[1] = human liver microsomes 0.5 mg/mL, with NADPH, compound 0.5 μM, 37° C., read-out: Human Liver Microsomal Stability t1/2
[2] = human liver microsomes 0.5 mg/mL, with NADPH, compound 0.5 μM, read-out: Human Liver Microsomal Stability CLint (uL/min/mg liver) (converted)
[3] = human liver microsomes, no NADPH, compound 0.5 μM

Compound	Comments: production of GNX (ganaxolone) in human liver microsomes (human liver microsomes)	half-life [1] [min]	microsomal CLint [2] [µL/min/mg]	Human Liver Microsomal Stability no NADPH, % remain 1 h [3] [%]	Comments: production of GNX (ganaxolone) in human liver microsomes	half-life (human, microsomes) [min]	microsomal CLint (human, microsomes) [µL/min/mg]	Human Liver Microsomal Stability no NADPH, % remain 1 h (human, microsomes) [%]
CC(=O)[C@H]1CC[C@H]2[C@@H]3CC[C@H]4C[C@](C)(OC(=O)COC(=O)OC5CNC5)CC[C@]4(C)[C@H]3CC[C@]12C [Compound 222]	In human no GNX produced	63.7	21.8	61				
CC(=O)[C@H]1CC[C@H]2[C@@H]3CC[C@H]4C[C@](C)(OC(=O)COC(=O)C(C)(C)OC(=O)CN(C)C)CC[C@]4(C)[C@H]3CC[C@]12C [Compound 227]					In human no GNX produced	23.9	58.1	71
CC(=O)COCN(CCO)CC(=O)OC(C)(C)C(=O)OCC(=O)O[C@]1(C)CC[C@@]2(C)[C@@H](CC[C@@H]3[C@@H]2CC[C@]2(C)[C@@H](C(C)=O)CC[C@@H]32)C1 [Compound 230]		2.94	471	1				
CC(=O)[C@H]1CC[C@H]2[C@@H]3CC[C@H]4C[C@](C)(OC(=O)COC(=O)C(C)(C)OC(=O)CN(CCCO)CCCO)CC[C@]4(C)[C@H]3CC[C@]12C [Compound 231]		5.3	261	98				
CNC(C)(C)C(=O)OCC(=O)O[C@]1(C)CC[C@@]2(C)[C@@H](CC[C@@H]3[C@@H]2CC[C@]2(C)[C@@H](C(C)=O)CC[C@@H]32)C1 [Compound 232]		13.5	103	27				
CC(=O)[C@H]1CC[C@H]2[C@@H]3CC[C@H]4C[C@](C)(OC(=O)COC(=O)C(C)(C)OC(=O)CN(C)CCO)CC[C@]4(C)[C@H]3CC[C@]12C [Compound 233]		5.3	261	5				
COCCN(CCO)CC(=O)OC(C)(C)C(=O)OCC(=O)O[C@]1(C)CC[C@@]2(C)[C@@H](CC[C@@H]3[C@@H]2CC[C@]2(C)[C@@H](C(C)=O)CC[C@@H]32)C1 [Compound 235]		5.2	269	36				
COCCN(CCOC(C)=O)CC(=O)OC(C)(C)C(=O)OCC(=O)O[C@]1(C)CC[C@@]2(C)[C@@H](CC[C@@H]3[C@@H]2CC[C@]2(C)[C@@H](C(C)=O)CC[C@@H]32)C1 [Compound 236]						3.72	372	<1
CC(=O)OCCCN(CCCOC(C)=O)CC(=O)OC(C)(C)C(=O)OCC(=O)O[C@]1(C)CC[C@@]2(C)[C@@H](CC[C@@H]3[C@@H]2CC[C@]2(C)[C@@H](C(C)=O)CC[C@@H]32)C1 [Compound 237]						5.18	267	<1
CC(=O)[C@H]1CC[C@H]2[C@@H]3CC[C@H]4C[C@](C)(OC(=O)COC(=O)C(C)(C)OC(=O)CN(C)CCOC(=O)CN)CC[C@]4(C)[C@H]3CC[C@]12C [Compound 241]						3.9	356	3.68
CC(=O)[C@H]1CC[C@H]2[C@@H]3CC[C@H]4C[C@](C)(OC(=O)COC(=O)C(C)(C)OC(=O)CN(C)CCCO)CC[C@]4(C)[C@H]3CC[C@]12C [Compound 245]		11.4	122	69.7				
CC(=O)[C@H]1CC[C@H]2[C@@H]3CC[C@H]4C[C@](C)(OC(=O)COC(=O)CO)CC[C@]4(C)[C@H]3CC[C@]12C [Compound 247]		2.01	689	1.1				
CC(=O)[C@H]1CC[C@H]2[C@@H]3CC[C@H]4C[C@](C)(OC(=O)CSCCN)CC[C@]4(C)[C@H]3CC[C@]12C [Compound 302]	In human GNX not produced					248	5.59	99
CC(=O)[C@H]1CC[C@H]2[C@@H]3CC[C@H]4C[C@](C)(OC(=O)CSCCOC(=O)CN5CCOCC5)CC[C@]4(C)[C@H]3CC[C@]12C [Compound 303]	In human GNX not produced	2.48	599	90				
CC(=O)[C@H]1CC[C@H]2[C@@H]3CC[C@H]4C[C@](C)(OC(=O)CSC(=N)N)CC[C@]4(C)[C@H]3CC[C@]12C [Compound 304]	In human small amount of GNX produced	173	8.03	83.8				
CC(=O)[C@H]1CC[C@H]2[C@@H]3CC[C@H]4C[C@](C)(OC(=O)CSC(C)(C)C(=O)O)CC[C@]4(C)[C@H]3CC[C@]12C [Compound 305]	In human small amount of GNX produced	171	8.12	98.8				
CC(=O)[C@H]1CC[C@H]2[C@@H]3CC[C@H]4C[C@](C)(OC(=O)CSC(C)(C)C(=O)NCCN(C)C)CC[C@]4(C)[C@H]3CC[C@]12C [Compound 307]	In human no GNX produced	391	3.55	99				
CC(=O)[C@H]1CC[C@H]2[C@@H]3CC[C@H]4C[C@](C)(OC(=O)CSC(C)(C)COC(=O)CN5CCOCC5)CC[C@]4(C)[C@H]3CC[C@]12C [Compound 310]	In human no GNX produced	2.9	474	1				
CC(=O)[C@H]1CC[C@H]2[C@@H]3CC[C@H]4C[C@](C)(OC(=O)CCC(=O)O)CC[C@]4(C)[C@H]3CC[C@]12C [Compound 407]	In human no GNX produced	79.8	17.4	99				
CC(=O)[C@H]1CC[C@H]2[C@@H]3CC[C@H]4C[C@](C)(OC(=O)C5CC5C(=O)O)CC[C@]4(C)[C@H]3CC[C@]12C (some centres unmarked) [Compound 408]	In human no GNX produced	143	9.72	76				
CC(=O)[C@H]1CC[C@H]2[C@@H]3CC[C@H]4C[C@](C)(OC(=O)CCC(=O)OCCN(C)C)CC[C@]4(C)[C@H]3CC[C@]12C [Compound 409]	In human small amount of GNX produced					12.8	108	7
CC(=O)[C@H]1CC[C@H]2[C@@H]3CC[C@H]4C[C@](C)(OC(=O)CCC(=O)NCCN(C)C)CC[C@]4(C)[C@H]3CC[C@]12C [Compound 410]	In human no GNX produced	439	3.16	99				
CC(=O)[C@H]1CC[C@H]2[C@@H]3CC[C@H]4C[C@](C)(OC(=O)C5CC5C(=O)NCCN(C)C)CC[C@]4(C)[C@H]3CC[C@]12C (some centres unmarked) [Compound 411]	In human small amount of GNX produced	444	3.12	99				
CC(=O)[C@H]1CC[C@H]2[C@@H]3CC[C@H]4C[C@](C)(OC(=O)CC(C)(C)C(=O)NCCN(C)C)CC[C@]4(C)[C@H]3CC[C@]12C [Compound 412]	In human small amount of GNX produced	273	5.07	94				
CC(=O)[C@H]1CC[C@H]2[C@@H]3CC[C@H]4C[C@](C)(OC(=O)CC(C)(C)C(=O)OCCN(C)C)CC[C@]4(C)[C@H]3CC[C@]12C [Compound 413]	In human no GNX produced	126	11	89				
CC(=O)[C@H]1CC[C@H]2[C@@H]3CC[C@H]4C[C@](C)(OC(=O)C[C@H](N)C(=O)O)CC[C@]4(C)[C@H]3CC[C@]12C [Compound 414]	In human no GNX produced	178	7.81	82				
CC(=O)[C@H]1CC[C@H]2[C@@H]3CC[C@H]4C[C@](C)(OC(=O)CCN5C(=O)CCC5=O)CC[C@]4(C)[C@H]3CC[C@]12C [Compound 415]	In human small amount of GNX produced	8.2	169	99				
